Drawing on the SangsterLogP compilation, this text covers logP for 19 molecules.

`CCC1CCCCC1` yielded a logP of 4.56.

Molecule `CCc1ccccc1O` came in with a logP of 2.36.

`Cc1cccc2[nH]ccc12` displayed a logP of 2.54.

On to `OCc1ccc2ccccc2c1`, for which the logP is 2.42.

`CCCCCCCCCCCCc1ccc(O)cc1O`: the lipophilicity (logP) stood at 5.32.

`CC1CCCCC1`: the lipophilicity (logP) was 4.17.

For the molecule `O=Cc1ccc(Cl)cc1`, the logP turned out to be 2.34.

In the case of `Oc1ccc(O)c2ccccc12`, the logP worked out at 2.24.

`Cc1[nH]c2ccccc2c1C`: the lipophilicity (logP) is 2.51.

Consider `C/C=C/CCCCC`, for which the logP stood at 4.51.

The molecule `CCCCCCCc1ccccc1` showed a logP of 5.37.

For `Oc1cccc2c1CCCC2`, the logP came out at 2.87.

As to `OCc1c2ccccc2cc2ccccc12`, the logP came to 3.04.

`CCCCCCc1ccc(O)cc1O` registered a logP of 3.07.

In turn, `CC(C)(C)C1CCCCC1` yielded a logP of 5.04.

With `CCn1c2ccccc2c2ccccc21`, the logP was 3.97.

Consider `CCc1cccc(CC)c1`, for which the logP was found to be 4.16.

`CCc1ccccc1CC`: the logP was determined as 4.1.

Regarding `CCc1ccc(CC)cc1`, the log partition coefficient (logP) came to 4.22.
